Literature values in patent publication US6465462B1, “Substituted triazolo pyridazine derivatives as inverse agonists of the GABAAα5 receptor subtype” (Merck Sharp & Dohme Ltd., priority 1996, dated 2002).

What was measured:
[1] = reported by McNamara and Skelton, Psychobiology 21:101-108
[2] = in vivo

COC(=O)c1cc2c(cn1)[nH]c1ccccc12 [β-CCM]
spatial learning in the Morris watermaze [1]: enhanced spatial learning | proconvulsant effect [2]: proconvulsant
